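Grown in 96-well plates, cells were treated for 48 hours with each compound at five concentrations. Insufficient inhibition: endpoint recorded as highest concentration tested. The concentration for 50% growth inhibition is given as GI50. TGI: total growth inhibition.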
How the values were obtained:
Assay in all cases: NCI tumour cell line growth inhibition, 48 h
UACC-257 melanoma = test system: UACC-257 melanoma
HT29 colon = test system: HT29 colon
OVCAR-5 ovarian = test system: OVCAR-5 ovarian
LOX IMVI melanoma = test system: LOX IMVI melanoma
A549 NSCLC = test system: A549 NSCLC
SNB-19 CNS = test system: SNB-19 CNS
NCI/ADR-RES ovarian = test system: NCI/ADR-RES ovarian
SK-OV-3 ovarian = test system: SK-OV-3 ovarian
EKVX NSCLC = test system: EKVX NSCLC
NCI-H522 lung = test system: NCI-H522 lung
SR leukemia = test system: SR leukemia
CAKI-1 renal = test system: CAKI-1 renal
A498 renal = test system: A498 renal
RPMI-8226 leukemia = test system: RPMI-8226 leukemia
UACC-62 melanoma = test system: UACC-62 melanoma
IGROV1 ovarian = test system: IGROV1 ovarian
MDA-MB-435 = test system: MDA-MB-435
SK-MEL-5 melanoma = test system: SK-MEL-5 melanoma
KM12 colon = test system: KM12 colon
HS 578T breast = test system: HS 578T breast
UO-31 renal = test system: UO-31 renal
MDA-MB-231 breast = test system: MDA-MB-231 breast
MALME-3M melanoma = test system: MALME-3M melanoma
DU-145 prostate = test system: DU-145 prostate
MCF7 breast = test system: MCF7 breast
SF-268 CNS = test system: SF-268 CNS
SK-MEL-2 melanoma = test system: SK-MEL-2 melanoma
RXF 393 renal = test system: RXF 393 renal
SNB-75 CNS = test system: SNB-75 CNS
HOP-92 NSCLC = test system: HOP-92 NSCLC
MOLT-4 leukemia = test system: MOLT-4 leukemia
CCRF-CEM leukemia = test system: CCRF-CEM leukemia
SW-620 colon = test system: SW-620 colon
HOP-62 NSCLC = test system: HOP-62 NSCLC
SK-MEL-28 melanoma = test system: SK-MEL-28 melanoma
NCI-H460 lung = test system: NCI-H460 lung
TK-10 renal = test system: TK-10 renal
HCT-116 colon = test system: HCT-116 colon
COLO 205 colon = test system: COLO 205 colon
NCI-H226 lung = test system: NCI-H226 lung
K-562 leukemia = test system: K-562 leukemia
SN12C renal = test system: SN12C renal
HCC-2998 colon = test system: HCC-2998 colon
BT-549 breast = test system: BT-549 breast
786-0 renal = test system: 786-0 renal
U251 CNS = test system: U251 CNS
HCT-15 colon = test system: HCT-15 colon
SF-539 CNS = test system: SF-539 CNS
OVCAR-4 ovarian = test system: OVCAR-4 ovarian
PC-3 prostate = test system: PC-3 prostate
OVCAR-8 ovarian = test system: OVCAR-8 ovarian
T-47D breast = test system: T-47D breast
NCI-H23 lung = test system: NCI-H23 lung
M14 melanoma = test system: M14 melanoma
SF-295 CNS = test system: SF-295 CNS
OVCAR-3 ovarian = test system: OVCAR-3 ovarian
HL-60(TB) leukemia = test system: HL-60(TB) leukemia
ACHN renal = test system: ACHN renal

`Cn1c2ccccc2c2c3c(c4c5ccccc5n(C)c4c21)C(=O)NC3=O` gave a TGI (UACC-257 melanoma) greater than 100000 nM, a TGI (HT29 colon) greater than 100000 nM and a TGI (OVCAR-5 ovarian) greater than 100000 nM. It also gave a TGI (LOX IMVI melanoma) greater than 100000 nM, a TGI (A549 NSCLC) greater than 85300 nM and a TGI (SNB-19 CNS) of 49600 nM. For the same compound, the TGI (NCI/ADR-RES ovarian) was greater than 100000 nM, the TGI (SK-OV-3 ovarian) was greater than 100000 nM and the TGI (EKVX NSCLC) was greater than 100000 nM. It also gave a TGI (NCI-H522 lung) greater than 86700 nM, a TGI (SR leukemia) greater than 100000 nM and a TGI (CAKI-1 renal) greater than 100000 nM. For the same compound, the TGI (A498 renal) was greater than 44200 nM, the TGI (RPMI-8226 leukemia) was greater than 100000 nM and the TGI (UACC-62 melanoma) was greater than 89600 nM. The TGI (IGROV1 ovarian) was greater than 71800 nM, the TGI (MDA-MB-435) was greater than 100000 nM and the TGI (SK-MEL-5 melanoma) was greater than 100000 nM. The TGI (KM12 colon) was greater than 100000 nM, the TGI (HS 578T breast) was greater than 72600 nM and the TGI (UO-31 renal) was greater than 100000 nM. For the same compound, the TGI (MDA-MB-231 breast) was greater than 52700 nM, the TGI (MALME-3M melanoma) was greater than 100000 nM and the TGI (DU-145 prostate) was greater than 100000 nM. For the same compound, the TGI (MCF7 breast) was greater than 100000 nM, the TGI (SF-268 CNS) was greater than 100000 nM and the TGI (SK-MEL-2 melanoma) was greater than 58300 nM. It also gave a TGI (RXF 393 renal) greater than 22100 nM, a TGI (SNB-75 CNS) greater than 95700 nM and a TGI (HOP-92 NSCLC) greater than 100000 nM. It also gave a TGI (MOLT-4 leukemia) greater than 100000 nM, a TGI (CCRF-CEM leukemia) greater than 100000 nM and a TGI (SW-620 colon) greater than 100000 nM. The TGI (HOP-62 NSCLC) was greater than 55800 nM, the TGI (SK-MEL-28 melanoma) was greater than 100000 nM and the TGI (NCI-H460 lung) was 70100 nM. It also gave a TGI (TK-10 renal) greater than 100000 nM, a TGI (HCT-116 colon) greater than 100000 nM and a TGI (COLO 205 colon) greater than 100000 nM. For the same compound, the TGI (NCI-H226 lung) was greater than 100000 nM, the TGI (K-562 leukemia) was greater than 100000 nM and the TGI (SN12C renal) was greater than 100000 nM. For the same compound, the TGI (HCC-2998 colon) was greater than 100000 nM, the TGI (BT-549 breast) was greater than 100000 nM and the TGI (786-0 renal) was 27500 nM. The TGI (U251 CNS) was greater than 51500 nM, the TGI (HCT-15 colon) was greater than 100000 nM and the TGI (SF-539 CNS) was 35400 nM. It also gave a TGI (OVCAR-4 ovarian) of 28600 nM, a TGI (PC-3 prostate) greater than 77500 nM and a TGI (OVCAR-8 ovarian) greater than 100000 nM. The TGI (T-47D breast) was greater than 100000 nM, the TGI (NCI-H23 lung) was greater than 100000 nM and the TGI (M14 melanoma) was greater than 100000 nM. It also gave a TGI (SF-295 CNS) greater than 76500 nM.
`C[C@@H]1C[C@H](C)CN(S(=O)(=O)c2ccc3c(NO)c4ccc(S(=O)(=O)N5C[C@H](C)C[C@H](C)C5)cc4c(N=O)c3c2)C1` gave a GI50 (HT29 colon) of 159 nM, a TGI (HT29 colon) of 313 nM and a GI50 (OVCAR-5 ovarian) of 173 nM. For the same compound, the TGI (OVCAR-5 ovarian) was 400 nM, the GI50 (LOX IMVI melanoma) was 105 nM and the TGI (LOX IMVI melanoma) was 242 nM. It also gave a GI50 (A549 NSCLC) of 170 nM, a TGI (A549 NSCLC) of 327 nM and a GI50 (OVCAR-3 ovarian) of 182 nM. The TGI (OVCAR-3 ovarian) was 328 nM, the GI50 (SNB-19 CNS) was 164 nM and the TGI (SNB-19 CNS) was 353 nM. It also gave a GI50 (NCI/ADR-RES ovarian) of 302 nM, a TGI (NCI/ADR-RES ovarian) greater than 1000 nM and a GI50 (SK-OV-3 ovarian) of 122 nM. It also gave a TGI (SK-OV-3 ovarian) of 248 nM, a GI50 (HL-60(TB) leukemia) of 185 nM and a TGI (HL-60(TB) leukemia) of 448 nM. For the same compound, the GI50 (EKVX NSCLC) was 128 nM, the TGI (EKVX NSCLC) was 269 nM and the GI50 (NCI-H522 lung) was 181 nM. The TGI (NCI-H522 lung) was 360 nM, the GI50 (SR leukemia) was 36.7 nM and the TGI (SR leukemia) was 215 nM. The GI50 (CAKI-1 renal) was 335 nM, the TGI (CAKI-1 renal) was greater than 1000 nM and the TGI (A498 renal) was greater than 1000 nM. The GI50 (ACHN renal) was 143 nM, the TGI (ACHN renal) was 293 nM and the GI50 (RPMI-8226 leukemia) was 240 nM. For the same compound, the TGI (RPMI-8226 leukemia) was 669 nM, the GI50 (UACC-62 melanoma) was 181 nM and the TGI (UACC-62 melanoma) was 345 nM. For the same compound, the GI50 (IGROV1 ovarian) was 210 nM, the TGI (IGROV1 ovarian) was 461 nM and the GI50 (MDA-MB-435) was 181 nM. For the same compound, the TGI (MDA-MB-435) was 397 nM, the GI50 (SK-MEL-5 melanoma) was 250 nM and the TGI (SK-MEL-5 melanoma) was 687 nM. For the same compound, the GI50 (KM12 colon) was 83.3 nM, the TGI (KM12 colon) was 257 nM and the GI50 (HS 578T breast) was 161 nM. It also gave a TGI (HS 578T breast) of 422 nM, a GI50 (UO-31 renal) of 167 nM and a TGI (UO-31 renal) of 338 nM. The GI50 (MDA-MB-231 breast) was 73.8 nM, the TGI (MDA-MB-231 breast) was 234 nM and the GI50 (MALME-3M melanoma) was 140 nM. The TGI (MALME-3M melanoma) was 293 nM, the GI50 (DU-145 prostate) was 115 nM and the TGI (DU-145 prostate) was 268 nM. It also gave a GI50 (MCF7 breast) of 176 nM, a TGI (MCF7 breast) of 357 nM and a GI50 (SF-268 CNS) of 25.2 nM. For the same compound, the TGI (SF-268 CNS) was 69.8 nM, the GI50 (SK-MEL-2 melanoma) was 194 nM and the TGI (SK-MEL-2 melanoma) was 403 nM. The GI50 (RXF 393 renal) was 158 nM, the TGI (RXF 393 renal) was 299 nM and the GI50 (SNB-75 CNS) was 123 nM. For the same compound, the TGI (SNB-75 CNS) was 255 nM, the GI50 (HOP-92 NSCLC) was 167 nM and the TGI (HOP-92 NSCLC) was 522 nM. The GI50 (MOLT-4 leukemia) was 47.8 nM, the TGI (MOLT-4 leukemia) was 194 nM and the GI50 (SW-620 colon) was 29.8 nM. For the same compound, the TGI (SW-620 colon) was 104 nM, the GI50 (HOP-62 NSCLC) was 171 nM and the TGI (HOP-62 NSCLC) was 324 nM. The GI50 (SK-MEL-28 melanoma) was 129 nM, the TGI (SK-MEL-28 melanoma) was 276 nM and the GI50 (NCI-H460 lung) was 56.5 nM. The TGI (NCI-H460 lung) was 222 nM, the GI50 (TK-10 renal) was 168 nM and the TGI (TK-10 renal) was 321 nM. It also gave a GI50 (HCT-116 colon) of 32 nM, a TGI (HCT-116 colon) of 115 nM and a GI50 (COLO 205 colon) of 172 nM. It also gave a TGI (COLO 205 colon) of 342 nM, a GI50 (NCI-H226 lung) of 157 nM and a TGI (NCI-H226 lung) of 364 nM. For the same compound, the GI50 (K-562 leukemia) was 35.6 nM, the TGI (K-562 leukemia) was 120 nM and the GI50 (SN12C renal) was 170 nM. For the same compound, the TGI (SN12C renal) was 399 nM, the GI50 (HCC-2998 colon) was 122 nM and the TGI (HCC-2998 colon) was 265 nM. For the same compound, the GI50 (BT-549 breast) was 175 nM, the TGI (BT-549 breast) was 340 nM and the GI50 (786-0 renal) was 169 nM. It also gave a TGI (786-0 renal) of 309 nM, a GI50 (U251 CNS) of 129 nM and a TGI (U251 CNS) of 266 nM. For the same compound, the GI50 (HCT-15 colon) was 71.7 nM, the TGI (HCT-15 colon) was 211 nM and the GI50 (SF-539 CNS) was 56.4 nM. For the same compound, the TGI (SF-539 CNS) was 207 nM, the GI50 (OVCAR-4 ovarian) was 170 nM and the TGI (OVCAR-4 ovarian) was 346 nM. The GI50 (PC-3 prostate) was 117 nM, the TGI (PC-3 prostate) was 249 nM and the GI50 (OVCAR-8 ovarian) was 232 nM. It also gave a TGI (OVCAR-8 ovarian) of 527 nM, a GI50 (T-47D breast) of 178 nM and a TGI (T-47D breast) of 362 nM. For the same compound, the GI50 (NCI-H23 lung) was 185 nM, the TGI (NCI-H23 lung) was 400 nM and the GI50 (M14 melanoma) was 103 nM. The TGI (M14 melanoma) was 231 nM, the GI50 (SF-295 CNS) was 178 nM and the TGI (SF-295 CNS) was 338 nM.

Reference: PubChem BioAssay (NCI)
